For 68 compounds, IC50 results are on record in patent publication US20130310379A1, “MODULATORS OF METHYL MODIFYING ENZYMES, COMPOSITIONS AND USES THEREOF” (CONSTELLATION PHARMACEUTICALS, priority 2010, published 2013).

The target in one test is EZH2 (Homo sapiens, UniProt Q15910). Nature of the test: EZH2 assay: rPRC2 with biotinylated oligonucleosome substrates and 3H SAM, FlashPlate scintillation counting, IC50. In kind it is biochemical.
Sequence of EZH2 (Q15910 whole entry): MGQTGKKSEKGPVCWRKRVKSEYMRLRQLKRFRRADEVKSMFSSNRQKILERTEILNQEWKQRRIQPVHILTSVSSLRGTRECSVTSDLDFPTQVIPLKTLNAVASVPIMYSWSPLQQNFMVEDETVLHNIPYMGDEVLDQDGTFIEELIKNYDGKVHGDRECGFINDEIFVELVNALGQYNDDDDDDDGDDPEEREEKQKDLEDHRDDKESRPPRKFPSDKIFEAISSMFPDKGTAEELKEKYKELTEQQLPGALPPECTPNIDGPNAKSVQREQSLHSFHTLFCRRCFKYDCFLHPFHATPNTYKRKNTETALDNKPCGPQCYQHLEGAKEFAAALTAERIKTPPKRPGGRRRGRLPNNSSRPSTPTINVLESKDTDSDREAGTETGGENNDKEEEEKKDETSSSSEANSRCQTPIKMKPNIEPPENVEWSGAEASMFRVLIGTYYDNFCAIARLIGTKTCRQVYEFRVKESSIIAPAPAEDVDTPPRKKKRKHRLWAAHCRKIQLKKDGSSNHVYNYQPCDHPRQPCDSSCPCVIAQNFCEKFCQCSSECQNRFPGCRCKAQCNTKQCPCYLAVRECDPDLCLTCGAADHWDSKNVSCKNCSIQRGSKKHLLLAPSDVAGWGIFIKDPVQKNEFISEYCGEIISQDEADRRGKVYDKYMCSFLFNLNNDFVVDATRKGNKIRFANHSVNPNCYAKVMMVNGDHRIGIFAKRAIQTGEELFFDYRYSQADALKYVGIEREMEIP
Sequence of EZH2 (O75530 whole entry partner): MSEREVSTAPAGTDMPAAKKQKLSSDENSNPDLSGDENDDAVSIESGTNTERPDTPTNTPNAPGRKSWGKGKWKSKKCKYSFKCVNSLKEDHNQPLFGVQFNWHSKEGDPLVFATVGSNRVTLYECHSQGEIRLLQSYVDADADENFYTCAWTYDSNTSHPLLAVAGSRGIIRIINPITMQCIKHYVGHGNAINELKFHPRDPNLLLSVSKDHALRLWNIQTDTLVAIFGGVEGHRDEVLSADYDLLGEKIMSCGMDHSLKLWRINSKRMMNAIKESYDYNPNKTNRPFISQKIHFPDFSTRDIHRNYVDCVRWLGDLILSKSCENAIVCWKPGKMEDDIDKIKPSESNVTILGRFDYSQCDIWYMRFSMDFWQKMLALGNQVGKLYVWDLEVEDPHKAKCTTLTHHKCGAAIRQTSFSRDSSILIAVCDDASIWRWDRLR
Sequence of EZH2 (Q15022 whole entry partner): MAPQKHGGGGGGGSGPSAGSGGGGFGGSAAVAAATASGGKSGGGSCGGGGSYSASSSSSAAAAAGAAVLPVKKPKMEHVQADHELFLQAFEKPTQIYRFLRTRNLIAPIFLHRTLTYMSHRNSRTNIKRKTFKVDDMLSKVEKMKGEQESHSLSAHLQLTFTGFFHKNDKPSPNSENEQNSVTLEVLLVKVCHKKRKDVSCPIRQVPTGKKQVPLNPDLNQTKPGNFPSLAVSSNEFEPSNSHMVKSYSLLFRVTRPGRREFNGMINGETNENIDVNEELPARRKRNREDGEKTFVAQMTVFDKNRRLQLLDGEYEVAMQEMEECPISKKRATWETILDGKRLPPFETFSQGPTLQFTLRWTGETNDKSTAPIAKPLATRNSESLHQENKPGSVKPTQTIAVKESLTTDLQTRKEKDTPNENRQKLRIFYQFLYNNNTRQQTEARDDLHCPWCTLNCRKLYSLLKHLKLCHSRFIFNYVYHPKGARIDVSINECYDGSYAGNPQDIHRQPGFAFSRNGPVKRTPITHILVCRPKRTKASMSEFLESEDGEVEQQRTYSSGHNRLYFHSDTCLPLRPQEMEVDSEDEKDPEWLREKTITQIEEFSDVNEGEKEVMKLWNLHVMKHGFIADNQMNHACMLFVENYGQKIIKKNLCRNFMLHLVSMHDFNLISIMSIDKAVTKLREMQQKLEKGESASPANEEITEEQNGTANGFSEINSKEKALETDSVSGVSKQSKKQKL
Details: not given
An outline of the steps:
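rPRC2 (2 nM EZH2) pre-incubated 20 min with compound (80 to 0.16 uM, ten 2-fold steps), then 60 min reaction with 0.2 uM 3H SAM, 0.2 uM biotinylated oligonucleosomes, 3.6 uM H3K27me3 peptide in Tris pH 8.5. SAH/EDTA quench; 4-parameter IC50 fit.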
With `CC1(C)CC(NC(=O)c2ccc(Oc3ccccc3C#N)c(Cl)c2)CC(C)(C)N1[O]` [Compound I-402], the IC50 (commonly the concentration at which inhibition is half-maximal) is more than 80 µM.

The same test, now with this note: rPRC2, biotinylated oligonucleosome substrates, 3H SAM; read-out: EZH2 IC50.
Regarding `CC1(C)CC(NC(=O)c2ccc(Oc3cccc(-c4cncs4)c3C#N)c(Cl)c2)CC(C)(C)N1` [Compound I-371], the IC50 is less than 5 µM.

Consider `CC1(C)CC(NC(=O)c2ccc(Oc3cccc4nccn34)c(Cl)c2)CC(C)(C)N1` [Compound I-372], for which the IC50 lay within 5 to 20 µM.

With `N#Cc1c(Oc2ccc(C(=O)NC3CCNCC3)cc2Cl)cccc1-c1cn[nH]c1` [Compound I-373], the IC50 was more than 80 µM.

As to `CC1(C)CC(NC(=O)c2ccc(Oc3cccc(-c4cnn(CC(=O)O)c4)c3C#N)c(Cl)c2)CC(C)(C)N1` [Compound I-374], the IC50 was less than 5 µM.

Take `CC1(C)CC(NC(=O)c2ccc(-c3ccc4cnccc4c3)c(Cl)c2)CC(C)(C)N1` [Compound I-376]: the IC50 was in the range of 20 to 80 µM.

Take `CC1(C)CC(NC(=O)c2ccc(-c3ccc4ccncc4c3)c(Cl)c2)CC(C)(C)N1` [Compound I-377]: the IC50 was 5 to 20 µM.

For the compound `N#Cc1ccccc1Oc1ccc(C(=O)N[C@@H]2C[C@H]3CC[C@@H](C2)N3)cc1Cl` [Compound I-380], the IC50 fell in the range of 20 to 80 µM.

As for `CC1(C)CC(NC(=O)c2ccc(OC3CCNCC3)c(Cl)c2)CC(C)(C)N1` [Compound I-382], the IC50 was more than 80 µM.

On to `Cc1cccc(Oc2ccc(C(=O)NC3CC(C)(C)NC(C)(C)C3)cc2Cl)c1-c1ccncc1` [Compound I-383], for which the 50% inhibitory concentration (IC50) is 20 to 80 µM.

Consider `CC1(C)CC(NC(=O)c2ccc(N3CCOc4ccccc43)c(Cl)c2)CC(C)(C)N1` [Compound I-384], for which the IC50 is 20 to 80 µM.

Turning to `CC1(C)CC(NC(=O)c2ccc(Oc3cccc(-c4cnn(CC(N)=O)c4)c3C#N)c(Cl)c2)CC(C)(C)N1` [Compound I-386], the half-inhibitory concentration (IC50) was less than 5 µM.

Take `CNC(=O)Cn1cc(-c2cccc(Oc3ccc(C(=O)NC4CC(C)(C)NC(C)(C)C4)cc3Cl)c2C#N)cn1` [Compound I-387]: the IC50 is less than 5 µM.

As for `CC1(C)CC(NC(=O)c2ccc(Oc3ccccc3C(N)=O)c(Br)c2)CC(C)(C)N1` [Compound I-388], the IC50 lay in the range of 5 to 20 µM.

On to `COC(=O)C1CC(NC(=O)c2ccc(Oc3ccccc3C#N)c(Cl)c2)CCN1` (centres unmarked) [Compound I-389], for which the IC50 was more than 80 µM.

As for `Cn1cncc1COc1ccc(C(=O)NC2CC(C)(C)NC(C)(C)C2)cc1Cl` [Compound I-390], the IC50 is more than 80 µM.

In the case of `CC1(C)CC(NC(=O)c2ccc(Oc3cccc(N4CCOCC4)c3C#N)c(Cl)c2)CC(C)(C)N1` [Compound I-391], the IC50 was less than 5 µM.

As for `CC1(C)CC(NC(=O)c2ccc(OC3CNC3)c(Cl)c2)CC(C)(C)N1` [Compound I-392], the half-inhibitory concentration (IC50) was more than 80 µM.

With `CC1(C)CC(NC(=O)c2ccc(OC3CCCNC3)c(Cl)c2)CC(C)(C)N1` (centres unmarked) [Compound I-393], the IC50 is more than 80 µM.

Take `CC1(C)CC(NC(=O)c2ccc(Oc3cccc(C(N)=O)c3C#N)c(Cl)c2)CC(C)(C)N1` [Compound I-394]: the IC50 lay in the range of 5 to 20 µM.

As for `CC1(C)CC(NC(=O)c2ccc(N3CC(c4ccccc4)CC3=O)c(Cl)c2)CC(C)(C)N1` (centres unmarked) [Compound I-396], the IC50 was more than 80 µM.

With `CC(O)c1cccc(Oc2ccc(C(=O)NC3CC(C)(C)NC(C)(C)C3)cc2Cl)c1Br` (centres unmarked) [Compound I-399], the IC50 is less than 5 µM.

For the compound `CC(O)c1cccc(Oc2ccc(C(=O)NC3CC(C)(C)NC(C)(C)C3)cc2Cl)c1-c1ccncc1` (centres unmarked) [Compound I-400], the IC50 is 5 to 20 µM.

With `N#Cc1ccccc1Oc1ccc(C(=O)NC2CCNC(=O)C2)cc1Cl` (centres unmarked) [Compound I-403], the IC50 is more than 80 µM.

On to `CC1(C)CNCCC1NC(=O)c1ccc(Oc2ccccc2C#N)c(Cl)c1` (centres unmarked) [Compound I-406], for which the IC50 was more than 80 µM.

Turning to `N#Cc1c(Br)cccc1Oc1ccc(C(=O)NC2CCNCC2)cc1Cl` [Compound I-407], the IC50 is more than 80 µM.

For `N#Cc1ccccc1Oc1ccc(C(=O)N[C@H]2C[C@H]3CC[C@@H](C2)N3)cc1Cl` [Compound I-408], the IC50 was more than 80 µM.

`CC1(C)CC(NC(=O)c2ccc(Oc3ccccc3C#N)c(Cl)c2)CC(c2ccccc2)N1` (centres unmarked) [Compound I-409]: the IC50 was in the range of 20 to 80 µM.

With `CC1(C)CC(NC(=O)c2ccc(OC[C@@H]3CCCN3)c(Cl)c2)CC(C)(C)N1` [Compound I-410], the IC50 is more than 80 µM.

In the case of `CC1(C)CC(NC(=O)c2ccc(OC3CCNC3)c(Cl)c2)CC(C)(C)N1` (centres unmarked) [Compound I-411], the IC50 was more than 80 µM.

As to `CC1(C)CC(NC(=O)c2ccc3c(c2)Cc2ccccc2O3)CC(C)(C)N1` [Compound I-412], the IC50 was more than 80 µM.

On to `CC1(C)CC(NC(=O)c2ccc(N3CCOC(c4ccccc4)C3)c(Cl)c2)CC(C)(C)N1` (centres unmarked) [Compound I-416], for which the IC50 was more than 80 µM.

As to `CC1(C)CC(NC(=O)c2ccc(Oc3ccccc3C#N)c(Cl)c2)C(F)(F)C(C)(C)N1` (centres unmarked) [Compound I-418], the IC50 was 20 to 80 µM.

With `CC1(C)CC(NC(=O)c2ccc(Oc3ccccc3C#N)c(Cl)c2)CC(C(=O)O)N1` (centres unmarked) [Compound I-419], the IC50 was more than 80 µM.

In the case of `COC(C)c1cccc(Oc2ccc(C(=O)NC3CC(C)(C)NC(C)(C)C3)cc2Cl)c1C#N` (centres unmarked) [Compound I-420], the IC50 was less than 5 µM.

Consider `CC1(C)CC(NC(=O)c2ccc(OC(C#N)c3ccccc3)c(Cl)c2)CC(C)(C)N1` (centres unmarked) [Compound I-421], for which the IC50 is more than 80 µM.

Consider `CC(C)NCc1cccc(Oc2ccc(C(=O)NC3CC(C)(C)NC(C)(C)C3)cc2Cl)c1` [Compound I-422], for which the IC50 fell in the range of 20 to 80 µM.

As for `CC1(C)CC(NC(=O)c2ccc(Oc3ccccc3C#N)c(Cl)c2)CC(C)(C)N1CC(=O)O` [Compound I-424], the IC50 was more than 80 µM.

`CNCc1cccc(Oc2ccc(C(=O)NC3CC(C)(C)NC(C)(C)C3)cc2Cl)c1` [Compound I-425]: the IC50 is more than 80 µM.

Regarding `CC(c1ccccc1)c1ccc(C(=O)NC2CC(C)(C)NC(C)(C)C2)cc1` (centres unmarked) [Compound I-426], the IC50 was more than 80 µM.

`CC(=O)NCc1cccc(Oc2ccc(C(=O)NC3CC(C)(C)NC(C)(C)C3)cc2Cl)c1` [Compound I-430]: the IC50 was less than 5 µM.

For `CC1(C)CC(NC(=O)c2ccc(C(O)c3ccccc3)cc2)CC(C)(C)N1` (centres unmarked) [Compound I-432], the IC50 is more than 80 µM.

Take `CC1(C)CC(NC(=O)c2ccc(Oc3ccccc3C#N)c(Cl)c2)CC(C)(C)C1` [Compound I-433]: the IC50 is more than 80 µM.

Turning to `CC1(C)CC(NC(=O)c2ccc(Oc3ccccc3C#N)c(Cl)c2)C(F)C(C)(C)N1` (centres unmarked) [Compound I-434], the IC50 is 20 to 80 µM.

As to `CC1(C)CC(NC(=O)c2cnc(Oc3cccc(-c4cn[nH]c4)c3C#N)c(Cl)c2)CC(C)(C)N1` [Compound I-435], the IC50 was less than 5 µM.

On to `CC1(C)CC(NC(=O)c2ccc(C3=NCC(=O)Nc4ccccc43)cc2)CC(C)(C)N1` [Compound I-436], for which the concentration for half-maximal inhibition (IC50) is more than 80 µM.

Consider `CC1(C)CC(NC(=O)c2ccc(C3(c4ccccc4)CC3)cc2)CC(C)(C)N1` [Compound I-437], for which the half-maximal inhibitory concentration (IC50) was more than 80 µM.

In the case of `CC1(C)CC(NC(=O)N2CCN(Cc3ccccc3C#N)CC2)CC(C)(C)N1` [Compound I-438], the IC50 was more than 80 µM.

Regarding `CC1(C)CC(NC(=O)c2ccc(Oc3cccc(-c4cn[nH]c4)c3C#N)c(C3CC3)c2)CC(C)(C)N1` [Compound I-439], the half-inhibitory concentration (IC50) is less than 5 µM.

For the compound `CC1(C)CC(NC(=O)c2ccc(N3CCOc4ccccc43)cc2)CC(C)(C)N1` [Compound I-440], the IC50 is more than 80 µM.

On to `CC1(C)CC(NC(=O)N2CCC(Oc3ccccc3C#N)CC2)CC(C)(C)N1` [Compound I-442], for which the IC50 was more than 80 µM.

With `CNC(C)c1cccc(Oc2ccc(C(=O)NC3CC(C)(C)NC(C)(C)C3)cc2Cl)c1` (centres unmarked) [Compound I-443], the IC50 fell in the range of 5 to 20 µM.

As for `CC1(C)CC(NC(=O)c2ccc(Oc3cccc(CC#N)c3-c3cncnc3)c(Cl)c2)CC(C)(C)N1` [Compound I-444], the IC50 was less than 5 µM.

As to `CC1(C)CC(NC(=O)c2ccc(Oc3cccc(-c4ncccn4)c3C#N)c(Cl)c2)CC(C)(C)N1` [Compound I-445], the IC50 was less than 5 µM.

Take `CC1(C)CC(NC(=O)c2ccc(Oc3cccc(CN4CCCCC4=O)c3)c(Cl)c2)CC(C)(C)N1` [Compound I-446]: the IC50 was in the range of 5 to 20 µM.

Regarding `CC1(C)CC(NC(=O)c2ccc(Oc3cccc(CN4CCCC4=O)c3)c(Cl)c2)CC(C)(C)N1` [Compound I-447], the IC50 fell in the range of 5 to 20 µM.

For the compound `CC1(C)CC(NC(=O)N2CCN(Cc3ccccc3C#N)C(=O)C2)CC(C)(C)N1` [Compound I-448], the IC50 was more than 80 µM.

Take `CC1(C)CC(C(=O)Nc2ccc(Oc3cccc(-c4cn[nH]c4)c3C#N)c(Cl)c2)CC(C)(C)N1` [Compound I-449]: the IC50 was 5 to 20 µM.

`CC1(C)CC(NC(=O)c2ccc(OCC3CCCCN3)c(Cl)c2)CC(C)(C)N1` (centres unmarked) [Compound I-450]: the IC50 is more than 80 µM.

As for `CC1(C)CC(NC(=O)c2ccc(Oc3cccc(CC#N)c3)c(Cl)c2)CC(C)(C)N1` [Compound I-451], the IC50 was less than 5 µM.

With `CC1(C)CC(NC(=O)c2ccc(Oc3ccccc3C#N)c(Cl)c2)CC(C)(C)N1CC(N)=O` [Compound I-452], the IC50 is more than 80 µM.

On to `COCc1cccc(Oc2ccc(C(=O)NC3CC(C)(C)NC(C)(C)C3)cc2Cl)c1C#N` [Compound I-453], for which the IC50 was less than 5 µM.

Turning to `CC(c1ccccc1C#N)N1CCN(C(=O)NC2CC(C)(C)NC(C)(C)C2)CC1` (centres unmarked) [Compound I-454], the IC50 is more than 80 µM.

Turning to `CC(O)c1ccccc1Oc1ccc(C(=O)NC2CC(C)(C)NC(C)(C)C2)cc1Cl` (centres unmarked) [Compound I-455], the IC50 lay within 5 to 20 µM.

On to `CC1(C)CC(C#N)(NC(=O)c2ccc(Oc3cccc(-c4ccnnc4)c3C#N)c(Cl)c2)CC(C)(C)N1` [Compound I-456], for which the IC50 was less than 5 µM.

For the compound `CC1(C)CC(NC(=O)c2ccc(O[C@H]3CCNC3=O)c(Cl)c2)CC(C)(C)N1` [Compound I-457], the IC50 was more than 80 µM.

Consider `CNC(=O)Cc1cccc(Oc2ccc(C(=O)NC3CC(C)(C)NC(C)(C)C3)cc2Cl)c1C#N` [Compound I-458], for which the IC50 is less than 5 µM.

With `CC1(C)CC(NC(=O)c2ccc(Oc3ccccc3C#N)c(Cl)c2)CC(C)(C)N1CCO` [Compound I-459], the IC50 was less than 5 µM.
